We go through one compound from paper PMC6838151 (Scientific Reports, 2019).

One data set deals with C. albicans B4. The data set is described as follows: microbe, parasite or virus in culture. The format is cell-based, Candida albicans. The conditions noted are these: Candida albicans, B4, 48 h. The source says:
(§1) The C. albicans CAF2-1 (Genotype/Description: ura3Δ::imm434/URA3[89]) and DSY1050 (Genotype/Description: cdr1Δ::hisG/cdr1Δ::hisG/cdr2Δ::hisG/cdr2Δ::hisG/mdr1Δ::hisG-URA3-hisG/mdr1Δ::hisG[90]) strains used in this study were generous gift from D. Sanglard (Lausanne, Switzerland)[91],[92] whereas C. albicans B3 and Gu4 (Genotype/Description: clinical isolates fluconazole sensitive)[93]), B4 (Genotype/Description: Clinical isolate fluconazole resistant due to the overexpression of MDR1[93]) and Gu5 (Genotype/Description: Clinical isolate fluconazole resistant due to the overexpression of CDR1 and CDR2[93]) were a generous gift from prof. S. Milewski (Gdańsk, Poland)[94] and prof. J. Morschhäuser (Wurzburg, Germany)[93]. All strains were grown at 37 °C on Sabouraud medium (Biomerieux).
(§2) The antifungal activity was determined on the 96-well polystyrene microtiter plates (Sarstedt) according to Clinical and Laboratory Standards Institute M27-A3[95]. […] The compounds were dissolved in DMSO (10 mM) and then serially diluted in RPMI-1640 (ThermoFisher) medium to obtain the final concentration range. Inocula of all strains were prepared as suspensions with turbidity of 0.5 McFarland standard in sterile 0.85% saline and diluted in RPMI-1640. After inoculation, each well contained appr. 5 × 10^2 CFU/mL. The plates were cultivated for 48 h at 37 °C. Optical density was measured at A490nm using a microplate reader ASYS UVM 340 (Biogenet).

The subject of data set [1] is C. albicans CAF2-1. The data set is described as follows: microbe, parasite or virus in culture. The format is cell-based, Candida albicans. To be noted: Candida albicans, CAF21, 48 h.
Text: as §1, §2

The next data set concerns C. albicans DSY1050. Nature of the data set: microbe, parasite or virus in culture. Type of data set: cell-based, Candida albicans. To be noted: Candida albicans, DSY1050, 48 h.
Text: as §1, §2

A further data set relates to C. albicans Gu5. Nature of the data set: microbe, parasite or virus in culture. The format is cell-based, Candida albicans. To be noted: Candida albicans, GU5, 48 h.
Text: as §1, §2

Another data set deals with C. albicans B3. The data set is described as follows: microbe, parasite or virus in culture. Type of data set: cell-based. To be noted: Candida albicans, B3, 48 h.
Text: as §1, §2

In a further data set the test system is C. albicans Gu4. Nature of the data set: microbe, parasite or virus in culture. The format is cell-based. The conditions noted are these: Candida albicans, GU4, 48 h.
Text: as §1, §2

Data set [2] relates to C. albicans CAF2-1. The data set is described as follows: microbe, parasite or virus in culture. Type of data set: cell-based, Candida albicans. The conditions noted are these: Candida albicans, CAF21, read-out: Viability of C. albicans CAF2-1. As for the experimental part:
The synergistic effects of KeOP/KeP with Flc were determined using the M27-A3 method with modifications. Flc and KeOP/KeP stock solutions in DMSO (10 mM) were (alone and simultaneously) diluted in RPMI-1640 medium to obtain final concentrations of^1/8; ^1/4; ^1/2; 1 × MIC50 towards C. albicans CAF2-1 strain in microdilution sterile plates (Sarstedt). Statistical significance analysis was performed using Student’s t-test ([…], unpaired) comparing viability in the presence of corresponding Flc concentrations with/without KeOP/KeP.

Data set [3] deals with hASCs (human adipose-derived stromal cells). Nature of the data set: Cytotoxicity IC50, TOX-8 resazurin assay, hASCs, 24 h. Type of data set: cell-based. On the procedure:
Human Adipose Tissue-derived Stem Cells (hASCs) were isolated from subcutaneous adipose tissue fragments harvested from non-diabetic female donors (age range 33–38, n = 2) during standard surgical procedure of total hip arthroplasty. Immediately after collection of tissue, the samples were placed in sterile tissue-transport medium (Hank’s Balanced Salt Solution (HBSS) supplemented with 1% Penicillin/Streptomycin/Amphotericin B solution (P/S/A). Mesenchymal stromal cell isolation was performed using enzymatic digestion of extracellular matrix with collagenase type I. Before digestion, tissue specimens were washed twice with HBSS and incubated in collagenase type I solution (1 mg/mL) at 37 °C for 40 min. The digest was subsequently centrifuged (1200 × g; 10 minutes; room temperature) and the cell pellet was resuspended in Dulbecco’s modified Eagle’s medium (DMEM) with Nutrient F-12 Ham, 10% of Fetal Bovine Serum (FBS), and 1% of P/S/A, transferred to a culture flask, and kept in culture under optimal conditions (37 °C in a humidified atmosphere of 5% CO2). The medium was refreshed every 2–3 days. At 80–90% confluence, the cells were passaged using trypsin solution (TrypLE Express, Life Technologies, California, USA). At passage 3, hASCs were collected and cellular phenotype was confirmed by the high expression of markers CD44, CD29, CD73, CD105 and low expression of CD45. Moreover, the trilineage differentiation capacity of ASCs was confirmed as previously described.
The IC50 values were determined using in vitro Toxicology TOX-8 Assay Kit (resazurin based) according to the manufacturer’s protocol. For this assay, cells were seeded in a 96-well plate at a density of 5 × 10^3 cells/well. The cells were pre-incubated in drug-free complete medium for 24 h before adding various concentrations of the compounds to be investigated. Stock solutions of the compounds were prepared in DMSO following serial dilutions in DMEM with Nutrient F-12 Ham complete medium. The cells exposure period was 24 h. After that time media were replaced with 10% v/v resazurin dye solution in fresh complete culture medium. Incubation was carried out for 2 h at 37 °C in the CO2 incubator. Reduction of the dye was measured spectrophotometrically at 600 nm and 690 nm reference wavelength (Epoch, Biotek). Absorbance measurements allowed the determination of viable treated cells relative to untreated controls using the inflection point of a dose-response graph. IC50 values were estimated as duplicates of triplicate readings in two independent experiments.
In general terms: Resazurin is reduced to fluorescent resorufin, in cell work by metabolically active cells.

The conditions of data set [4]: cited from earlier work.

Values after ≈ are worked out from the molar mass of the structure shown.

Broadly, the viability is a per cent measure of how many cells are alive, often set against a control. For `OC(Cn1cncn1)(Cn1cncn1)c1ccc(F)cc1F` [Flc, fluconazole, reference compound], the MIC50 against C. albicans B4 was 50 µM (≈ 15.3 µg/mL); against C. albicans CAF2-1 [1], 6.25 µM (≈ 1.91 µg/mL); in the data set on C. albicans DSY1050, 0.78 µM (≈ 0.239 µg/mL); in the data set with C. albicans Gu5, over 200 µM; in the data set on C. albicans B3 it was 6.25 µM (≈ 1.91 µg/mL); in the data set with C. albicans Gu4 it was 6.25 µM (≈ 1.91 µg/mL). Besides, the viability at 0.78 µM in the data set with C. albicans CAF2-1 [2] turned out to be 86.9 ± 7.84%. In the data set on C. albicans CAF2-1 [2], the viability at 1.56 µM was 71.3 ± 13.9%. In addition, the viability at 3.13 µM with C. albicans CAF2-1 [2] came out at 73.8 ± 4.35%. In addition, in the data set on C. albicans CAF2-1 [2], the viability at 6.25 µM stood at 38 ± 8.94%. Besides, in data set [3], the “IC50 (cytotoxicity, hASCs viability)” value is “not cytotoxic in the tested concentration range”. Besides, the “fold less active in vitro than Ke” value in data set [4] is on record as “approximately 16 fold”.
